Test results published in paper PMC4317219 (Pharmacology Research & Perspectives, 2014).

How the values were obtained:
[1] = system: Sprague-Dawley rats, i.c.v. ouabain-induced hyperactivity; assay: Ouabain-induced hyperactivity; format: in vivo, rat; conditions: acute; cariprazine 1.0 mg/kg i.p. aCSF vs. saline aCSF (no ouabain); P < 0.05
[2] = target: mouse D2R-long form (mD2LR) (Mus musculus, UniProt P61168); assay: cell-based
[3] = cited from earlier work
[4] = after an i.p. injection, ref [1976]

mouse D2R-long form (mD2LR), sequence (P61168 whole entry): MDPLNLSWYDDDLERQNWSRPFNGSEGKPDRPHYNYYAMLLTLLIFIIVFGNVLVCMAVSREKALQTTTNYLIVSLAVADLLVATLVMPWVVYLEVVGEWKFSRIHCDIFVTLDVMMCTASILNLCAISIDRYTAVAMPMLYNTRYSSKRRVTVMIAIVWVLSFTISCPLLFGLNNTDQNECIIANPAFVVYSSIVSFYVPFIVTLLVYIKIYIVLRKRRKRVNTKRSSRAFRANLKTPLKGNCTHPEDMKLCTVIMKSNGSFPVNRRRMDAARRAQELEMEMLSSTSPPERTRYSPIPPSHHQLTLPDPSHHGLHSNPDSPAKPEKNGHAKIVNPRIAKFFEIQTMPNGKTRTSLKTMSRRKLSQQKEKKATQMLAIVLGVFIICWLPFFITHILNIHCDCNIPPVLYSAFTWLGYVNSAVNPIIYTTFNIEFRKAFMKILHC

Compound | sedation: inhibition of open field activity [1] [%] | EC50 [2] [nM] | lithium levels achieved in the rats ([3]; 6.75 mEq/kg i.p. then 2.4 g/kg of food for 7 days, ref [2003]) [mmol/L] | time to maximum brain levels [3, 4] [h] | time to maximum serum level [3, 4] [h]
CN(C)C(=O)N[C@H]1CC[C@H](CCN2CCN(c3cccc(Cl)c3Cl)CC2)CC1 [Cariprazine] | 72 | 1.4 ± 0.1 | – | – | –
[Li] [lithium] | – | – | 1.01 ± 0.18 | ≤ 8 | ≤ 0.5
